Test system: 379773-124-R-J2-PDC complex spheroids, viability % test/control
Assay: Anticancer human tumor 379773-124-R-J2-PDC patient-derived endometrial carcinoma cell line growth inhibition [CLK]
Conditions: for IC50: curve of first compound; for viability, T/C: stronger effect = lower value
Excerpt: A high-throughput screen of multi-cell type tumor spheroids was designed to identify active combinations of […] and targeted small molecules. Complex spheroids include a stromal component modeled by human endothelial cells (HUVEC) and fibroblasts modeled by human mesenchymal stem cells (MSCs). The concentration ranges selected for each drug and investigational agent were based upon clinically achievable concentrations if the clinical Cmax of the agent was known.
Compounds. The drugs and investigational agents: cirtuvivint (SM08502; NSC835563), CC-671 (NSC850746), vemurafenib (NSC761431), tapotoclax (NSC804041), sotorasib (NSC818433), adagrasib (NSC831453), MRTX-1133 (NSC836407), BAY2416964 (NSC825713), copanlisib (NSC816437), inavolisib (NSC800729), abemaciclib (NSC768073), osimertinib (NSC779217), entinostat (NSC756642), eltanexor (KPT-8602, NSC794443), venetoclax (NSC766270), ceralasertib (NSC777638), bortezomib (NSC756655), olaparib (NSC753686), talazoparib (NSC767125), alisertib (NSC759677), peposertib (NSC802822), gemcitabine (NSC613327), 5-fluorouracil (NSC19893), SN-38 (NSC673596), oxaliplatin (NSC266046), paclitaxel (NSC125973), and doxorubicin (NSC123127), were obtained from the National Cancer Institute (NCI) Developmental Therapeutics Program Chemical Repository. The FDA-approved anticancer drug set is available from the Developmental Therapeutics Program at https://dtp.cancer.gov/organization/dscb/obtaining/available plates.htm. […] The stock solutions were prepared in dimethyl sulfoxide (DMSO, Sigma-Aldrich, St. Louis, MO, cat. D2650), except for the platinum complexes which were prepared in saline (Quality Biological, Gaithersburg, MD, cat. 114-055-101), at 800-fold the tested concentration and stored at -70 degrees C prior to their use. All drugs and investigational agents were tested over a range starting from a high concentration at or near the clinical Cmax and decreasing in half-log increments. If the clinical Cmax for an agent had not been determined, the highest concentration tested was 10 microM.
Cell Culture. All cells were maintained in an incubator at 37 degrees C and 5% CO2 with 95% humidity. The PDC lines were cultured according to standard operating procedures established by the NCI PDMR. Briefly, all PDCs were thawed and cultured in Matrigel-coated flasks prepared with a working solution of 1X Ham's F-12 nutrient mix, without supplementation (Invitrogen, Waltham, MA, cat. 11765054), 100 U/mL penicillin-streptomycin (Invitrogen, cat. 15140122), and 2.5% Matrigel (Corning Inc., Corning, NY, cat. 354248) for the first three passages. The 947758-054-R-J2-PDC line was cultured in 6B/Colon 1A media, which includes advanced DMEM/F-12 (Thermo Fisher Scientific, cat. 12634028), 10 mM HEPES (Thermo Fisher Scientific, cat. 15630080), 1X GlutaMAX supplement (Thermo Fisher Scientific, cat. 35050061), 0.1 mg/mL primocin (InvivoGen, cat. ant-pm-2), 10% defined fetal bovine serum, heat inactivated (HyClone Laboratories Inc., cat. SH30070.03HI), 1.25 mM N-Acetyl-L-cysteine (Sigma-Aldrich, cat. A9165), 10 mM nicotinamide (Sigma-Aldrich, cat. N0636), 1X B-27 supplement (Thermo Fisher Scientific, cat. 17504044), 1X N-2 supplement (Thermo Fisher Scientific, cat. 17502048), and 10 microM Y-27632 dihydrochloride (Tocris Bioscience, cat. 1254). The 876862-298-R-J1-PDC was cultured in 6E media, which includes all 6B/Colon 1A media components plus 50% L-WRN conditioned media (ATCC, cat. CRL-3276), 50 ng/mL recombinant human EGF recombinant protein (hEGF; Thermo Fisher Scientific, cat. PHG0311), 10 ng/mL recombinant human fibroblast growth factor 10 (hGFG-10; PeproTech, cat. 100-26), 1 ng/mL recombinant human fibroblast growth factor 2 (hFGF-2; PeproTech, cat. 100-18B), and 1 µM prostaglandin E2 (PGE2; Tocris, cat. 2296). The 227483-062-R1-J1-PDC line was cultured in Panc media, containing all 6E components except hFGF-2, with the addition of 500 nM SB-431542 (Selleckchem, cat. S1067) and 10 nM gastrin (Tocris, cat. 3006). […]

[1] = second compound 0.0316 µM, first compound 0.0316 µM
[2] = second compound 0.0316 µM, first compound 0.1 µM
[3] = second compound 0.0316 µM, first compound 0.316 µM
[4] = second compound 0.0316 µM, first compound 1 µM
[5] = second compound 0.0316 µM, first compound 3.16 µM
[6] = second compound 0.0316 µM, first compound 10 µM
[7] = second compound 0.1 µM, first compound 0.0316 µM
[8] = second compound 0.1 µM, first compound 0.1 µM
[9] = second compound 0.1 µM, first compound 0.316 µM
[10] = second compound 0.1 µM, first compound 1 µM
[11] = second compound 0.1 µM, first compound 3.16 µM
[12] = second compound 0.1 µM, first compound 10 µM
[13] = second compound 0.316 µM, first compound 0.0316 µM
[14] = second compound 0.316 µM, first compound 0.1 µM
[15] = second compound 0.316 µM, first compound 0.316 µM
[16] = second compound 0.316 µM, first compound 1 µM
[17] = second compound 0.316 µM, first compound 3.16 µM
[18] = second compound 0.316 µM, first compound 10 µM
[19] = second compound 1 µM, first compound 0.0316 µM
[20] = second compound 1 µM, first compound 0.1 µM
[21] = second compound 1 µM, first compound 0.316 µM
[22] = second compound 1 µM, first compound 1 µM
[23] = second compound 1 µM, first compound 3.16 µM
[24] = second compound 1 µM, first compound 10 µM
[25] = second compound 3.16 µM, first compound 0.0316 µM
[26] = second compound 3.16 µM, first compound 0.1 µM
[27] = second compound 3.16 µM, first compound 0.316 µM
[28] = second compound 3.16 µM, first compound 1 µM
[29] = second compound 3.16 µM, first compound 3.16 µM
[30] = second compound 3.16 µM, first compound 10 µM
[31] = second compound 10 µM, first compound 0.0316 µM
[32] = second compound 10 µM, first compound 0.1 µM
[33] = second compound 10 µM, first compound 0.316 µM
[34] = second compound 10 µM, first compound 1 µM
[35] = second compound 10 µM, first compound 3.16 µM
[36] = second compound 10 µM, first compound 10 µM
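Also: compound exposure lasted seven days before the viability readout.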
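For viability, T/C in this document: 100% = DMSO vehicle control wells.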

C#Cc1c(F)ccc2cc(O)cc(-c3ncc4c(N5CC6CCC(C5)N6)nc(OCC56CCCN5CC(F)C6)nc4c3F)c12 (stereo unspecified) + CN1CCN(c2cc(C(=O)Nc3cc4cc(-c5cnn(C)c5)ccc4cn3)ccn2)CC1
IC50 (second compound 0.0316 µM): > 10000 nM
IC50 (second compound 0.1 µM): > 10000 nM
IC50 (second compound 0.316 µM): < 31.6 nM
IC50 (second compound 1 µM): < 31.6 nM
IC50 (second compound 3.16 µM): < 31.6 nM
IC50 (second compound 10 µM): < 31.6 nM
viability, T/C [1]: 88.4%
viability, T/C [2]: 91.4%
viability, T/C [3]: 93%
viability, T/C [4]: 87.5%
viability, T/C [5]: 103%
viability, T/C [6]: 99.3%
viability, T/C [7]: 89.7%
viability, T/C [8]: 84.5%
viability, T/C [9]: 75.7%
viability, T/C [10]: 77%
viability, T/C [11]: 99.1%
viability, T/C [12]: 72.8%
viability, T/C [13]: 35.7%
viability, T/C [14]: 27.4%
viability, T/C [15]: 35.1%
viability, T/C [16]: 33.3%
viability, T/C [17]: 32.5%
viability, T/C [18]: 28.4%
viability, T/C [19]: 0.19%
viability, T/C [20]: 0.22%
viability, T/C [21]: 0.24%
viability, T/C [22]: 1.34%
viability, T/C [23]: 0.78%
viability, T/C [24]: 0.14%
viability, T/C [25]: 0.14%
viability, T/C [26]: 2.72%
viability, T/C [27]: 0.76%
viability, T/C [28]: 2.34%
viability, T/C [29]: 1.68%
viability, T/C [30]: 1.37%
viability, T/C [31]: 2.32%
viability, T/C [32]: 0.23%
viability, T/C [33]: 0.32%
viability, T/C [34]: 3.73%
viability, T/C [35]: 1.56%
viability, T/C [36]: 0.31%

C=C(F)C(=O)N1CCN(c2nc(OCC3CCCN3C)nc3c2CCN(c2cccc4cccc(Cl)c24)C3)CC1CC#N (stereo unspecified) + CN1CCN(c2cc(C(=O)Nc3cc4cc(-c5cnn(C)c5)ccc4cn3)ccn2)CC1
IC50 (second compound 0.0316 µM): 4620 nM
IC50 (second compound 0.1 µM): 2700 nM
IC50 (second compound 0.316 µM): < 31.6 nM
IC50 (second compound 1 µM): < 31.6 nM
IC50 (second compound 3.16 µM): < 31.6 nM
IC50 (second compound 10 µM): < 31.6 nM
viability, T/C [1]: 87.9%
viability, T/C [2]: 86%
viability, T/C [3]: 86%
viability, T/C [4]: 88.7%
viability, T/C [5]: 73.9%
viability, T/C [6]: 1.28%
viability, T/C [7]: 85.8%
viability, T/C [8]: 72.8%
viability, T/C [9]: 90.9%
viability, T/C [10]: 79.5%
viability, T/C [11]: 45.3%
viability, T/C [12]: 1%
viability, T/C [13]: 28.3%
viability, T/C [14]: 36.7%
viability, T/C [15]: 31.8%
viability, T/C [16]: 37.5%
viability, T/C [17]: 13.6%
viability, T/C [18]: 0.93%
viability, T/C [19]: 0.49%
viability, T/C [20]: 0.17%
viability, T/C [21]: 0.3%
viability, T/C [22]: 1.49%
viability, T/C [23]: 0.88%
viability, T/C [24]: 0.75%
viability, T/C [25]: 1.35%
viability, T/C [26]: 0.14%
viability, T/C [27]: 2.05%
viability, T/C [28]: 0.84%
viability, T/C [29]: 1.24%
viability, T/C [30]: 0.11%
viability, T/C [31]: 0.66%
viability, T/C [32]: 1.65%
viability, T/C [33]: 0.21%
viability, T/C [34]: 0.22%
viability, T/C [35]: 0.2%
viability, T/C [36]: 0.65%

CC(CO)NC(=O)c1cc(-c2ccc(Cl)cc2)nn(-c2cnn(C)c2)c1=O (stereo unspecified) + CN1CCN(c2cc(C(=O)Nc3cc4cc(-c5cnn(C)c5)ccc4cn3)ccn2)CC1
IC50 (second compound 0.0316 µM): > 10000 nM
IC50 (second compound 0.1 µM): > 10000 nM
IC50 (second compound 0.316 µM): < 31.6 nM
IC50 (second compound 1 µM): < 31.6 nM
IC50 (second compound 3.16 µM): < 31.6 nM
IC50 (second compound 10 µM): < 31.6 nM
viability, T/C [1]: 100%
viability, T/C [2]: 86.8%
viability, T/C [3]: 90.3%
viability, T/C [4]: 102%
viability, T/C [5]: 102%
viability, T/C [6]: 66.5%
viability, T/C [7]: 96.9%
viability, T/C [8]: 86.3%
viability, T/C [9]: 79.8%
viability, T/C [10]: 105%
viability, T/C [11]: 75.1%
viability, T/C [12]: 52.9%
viability, T/C [13]: 24.6%
viability, T/C [14]: 27.9%
viability, T/C [15]: 33.9%
viability, T/C [16]: 32.1%
viability, T/C [17]: 32.6%
viability, T/C [18]: 24.4%
viability, T/C [19]: 0.57%
viability, T/C [20]: 0.17%
viability, T/C [21]: 0.46%
viability, T/C [22]: 0.65%
viability, T/C [23]: 0.68%
viability, T/C [24]: 0.88%
viability, T/C [25]: 1.45%
viability, T/C [26]: 0.87%
viability, T/C [27]: 0.16%
viability, T/C [28]: 2.5%
viability, T/C [29]: 1.79%
viability, T/C [30]: 1.37%
viability, T/C [31]: 0.55%
viability, T/C [32]: 0.23%
viability, T/C [33]: 0.2%
viability, T/C [34]: 0.85%
viability, T/C [35]: 0.23%
viability, T/C [36]: 0.65%

Reference: PubChem BioAssay AID2060604 (Molecular Pharmacology Branch, DTP, NCI, 2025)
